# Assays:
# [1] = Foam evaluation (foam height); type: physicochemical; settings: 1200 ppm solution in water; 120° F.; additive with quaternary ammonium compound
# Protocol: The foaming properties of the quaternary ammonium compounds were evaluated and then tested for reduced foaming when traditional defoaming compounds were included. The foam height was determined with the following procedural steps: • 1. A 1200 ppm solution of the test composition was mixed in water. • 2. The foam height was measured immediately after mixing. • 3. The solution was agitated and the foam height was measured after 15 seconds. • 4. The solution was agitated and the solution was measured after another 45 seconds of agitation (60 seconds total since the solution was mixed). The temperature of the solution was at 120° F. for the duration of the test. As can been seen in FIGS. 1A and 1B, the various quaternary ammonium compounds tested provided significant foam height after mixing at after 15 seconds of agitation. The traditional defoamers had varying impacts on the foaming properties of the quaternary ammonium compounds.
# The ability of the polycarboxylic acids and/or salts to control the foam of different quaternary ammonium compounds was also tested. The same procedural steps outlined above were followed. […].
# [2] = tested on: E. coli (ATCC 11229); experiment: Antimicrobial evaluation, log reduction of microbial population; type: cell-based; settings: pH 7, 500 ppm hard water, 120° F., about 30 seconds contact
# Protocol: The quaternary ammonium compounds were tested for antimicrobial efficacy against exemplary bacteria (E. coli and S. aureus) under different pH conditions. For this evaluation, various test solutions were prepared in 500 ppm hard water at a temperature of 120° F. The microbial population was contacted with the test composition for about 30 seconds. The microbial population was measured before and after the contacting step and the difference was taken to identify the log reduction. The quaternary ammonium compounds tested, their concentrations, and the corresponding log reductions are shown below in Table 2.
Compound,reduction to the foaming of quaternary ammonium compounds [1],log reduction ([2]; 30 ppm),log reduction ([2]; 40 ppm),log reduction ([2]; 50 ppm)
O=S(=O)([O-])[O-].[Na+].[Na+] [sodium sulfate],did not,–,–,–
O=C([O-])c1ccccc1.[Na+] [sodium benzoate],did not,–,–,–
CC(=O)O [acetate],did not,–,–,–
"CCCCCCCCCC[N+](C)(C)CCCCCCCCCC.[Cl-] [Bardac 2250, didecyl dimethyl ammonium chloride]",–,3.33,5.02,6.71

# — US12655365B2, “Low foam cleaning compositions” (ECOLAB USA INC., priority 2020, dated 2026)
